# Source: ChEMBL document CHEMBL5338827, “Evolution and Discovery of Matrine Derivatives as a New Class of Anti-Hepatic Fibrosis Agents Targeting Ewing Sarcoma Breakpoint Region 1 (EWSR1)” (J Med Chem, 2023)
# Activity calls are given as the source filed them. The rule behind the calls is not given here.
# Tests used:
# [1] = molecular target: Collagen alpha-1(I) chain (Homo sapiens, UniProt P02452); test: Inhibition of COL1A1 (unknown origin) expressed in human LX2 cells at 40 uM measured for 24 hrs relative to control; format: cell-based
# HSC-T6 [2] = test: Anti-fibrosis effect in HSC-T6 cells assessed as reduction in TGFbeta1-induced integrin subunit alpha-V protein expression measured for 24 hrs; format: functional, cell-based; settings: Rattus norvegicus, dose 2.5-20 µM
# Rattus norvegicus [3] = test: Anti-hepatic fibrosis activity in bile duct ligation rat model assessed as reduction in bile duct hyperplasia at 100 mg/kg, po administered for 14 days by hematoxylin and eosin staining based analysis; format: functional, organism-based; settings: time 14.0 day
# Rattus norvegicus [4] = test: Anti-hepatic fibrosis activity in bile duct ligation rat model assessed as reduction in MMP2 protein expression at 100 mg/kg, po administered for 14 days by Western blot analysis; format: functional, organism-based; settings: time 14.0 day
# LX-2 [5] = test: Anti-hepatic fibrosis activity in human LX2 cells assessed as inhibition of TGF-beta1 induced COL1A1 mRNA expression at 20 uM incubated for 24 hrs by qRT-PCR analysis; format: functional, cell-based
# Rattus norvegicus [6] = test: Anti-hepatic fibrosis activity in bile duct ligation rat model assessed as reduction in ALT level at 100 mg/kg, po administered for 14 days; format: functional; settings: time 14 day
# Rattus norvegicus [7] = test: Anti-hepatic fibrosis activity in bile duct ligation rat model assessed as reduction in CTGF protein expression at 100 mg/kg, po administered for 14 days by Western blot analysis; format: functional, organism-based; settings: time 14.0 day
# Rattus norvegicus [8] = test: Anti-hepatic fibrosis activity in bile duct ligation rat model assessed as reduction in TGFB1 protein expression at 100 mg/kg, po administered for 14 days by Western blot analysis; format: functional, organism-based; settings: time 14.0 day
# Rattus norvegicus [9] = test: Anti-hepatic fibrosis activity in bile duct ligation rat model assessed as reduction in AST level at 100 mg/kg, po administered for 14 days; format: functional; settings: time 14 day
# LX-2 [10] = test: Anti-hepatic fibrosis activity in human LX2 cells assessed as inhibition of TGFbeta1-induced alpha-SMA protein expression at 20 uM incubated for 24 hrs by western blot analysis; format: functional, cell-based
# HSC-T6 [11] = test: Anti-fibrosis effect in HSC-T6 cells assessed as reduction in TGFbeta1-induced alpha-SMA protein expression measured for 24 hrs; format: functional, cell-based; settings: Rattus norvegicus, dose 2.5-20 µM
# LX-2 [12] = test: Anti-fibrosis effect in human LX2 cells assessed as reduction in TGFbeta1-induced alpha-SMA protein expression at 10 to 20 uM measured for 24 hrs; format: functional, cell-based; settings: dose 10-20 µM
# Mus musculus [13] = test: Anti-hepatic fibrosis activity in MDR2 knockout liver injury mouse model assessed as reduction inflammatory infiltration at 100 mg/kg, po administered once a day for 4 weeks by H and E staining analysis; format: functional, organism-based
# Rattus norvegicus [14] = test: Anti-hepatic fibrosis activity in bile duct ligation rat model assessed as reduction in CoL1A1 mRNA expression at 100 mg/kg, po administered for 14 days by qRT-PCR analysis; format: functional, organism-based; settings: time 14.0 day
# LX-2 [15] = test: Anti-fibrosis effect in human LX2 cells assessed as reduction in TGFbeta1-induced integrin subunit alpha-V mRNA expression at 10 to 20 uM measured for 24 hrs; format: functional, cell-based; settings: dose 10-20 µM
# LX-2 [16] = test: Anti-fibrosis effect in human LX2 cells assessed as reduction in TGFbeta1-induced COL1A1 protein expression at 10 to 20 uM measured for 24 hrs; format: functional, cell-based; settings: dose 10-20 µM
# Mus musculus [17] = test: Anti-hepatic fibrosis activity in MDR2 knockout liver injury mouse model assessed as reduction in bile duct hyperplasia at 100 mg/kg, po administered once a day for 4 weeks by H and E staining analysis; format: functional, organism-based
# Mus musculus [18] = test: Anti-hepatic fibrosis activity in MDR2 knockout liver injury mouse model assessed as reduction in LDH level at 100 mg/kg, po administered once a day for 4 weeks (reference value: 1080.83+/-182.40 U/L); format: functional
# Mus musculus [19] = test: Anti-hepatic fibrosis activity in MDR2 knockout liver injury mouse model assessed as reduction in MMP2 protein expression at 100 mg/kg, po administered once a day for 4 weeks by Western blot analysis; format: functional, organism-based
# LX-2 [20] = test: Anti-hepatic fibrosis activity in human LX2 cells assessed as inhibition of TGFbeta1-induced COL1A1 protein expression at 20 uM incubated for 24 hrs by western blot analysis; format: functional, cell-based
# Mus musculus [21] = test: Anti-hepatic fibrosis activity in MDR2 knockout liver injury mouse model assessed as reduction in ALP level at 100 mg/kg, po administered once a day for 4 weeks (reference value: 386.80+/-179.56 U/L); format: functional
# LX-2 [22] = test: Anti-hepatic fibrosis activity in human LX2 cells assessed as inhibition of TGF-beta1 induced CTGF mRNA expression at 20 uM incubated for 24 hrs by qRT-PCR analysis; format: functional, cell-based
# Mus musculus [23] = test: Anti-hepatic fibrosis activity in MDR2 knockout liver injury mouse model assessed as reduction in TGFbeta1 protein expression at 100 mg/kg, po administered once a day for 4 weeks by Western blot analysis; format: functional, organism-based
# Rattus norvegicus [24] = test: Anti-hepatic fibrosis activity in bile duct ligation rat model assessed as reduction in bile TBiL level at 100 mg/kg, po administered for 14 days; format: functional; settings: time 14 day
# Mus musculus [25] = test: Anti-hepatic fibrosis activity in MDR2 knockout liver injury mouse model assessed as reduction in alpha-SMA protein expression at 100 mg/kg, po administered once a day for 4 weeks by Western blot analysis; format: functional, organism-based
# Mus musculus [26] = test: Anti-hepatic fibrosis activity in MDR2 knockout liver injury mouse model assessed as reduction in AST level at 100 mg/kg, po administered once a day for 4 weeks (reference value: 400+/-156.78 U/L); format: functional
# Rattus norvegicus [27] = test: Anti-hepatic fibrosis activity in bile duct ligation rat model assessed as reduction in CTGF mRNA expression at 100 mg/kg, po administered for 14 days by qRT-PCR analysis; format: functional, organism-based; settings: time 14.0 day
# Rattus norvegicus [28] = test: Anti-hepatic fibrosis activity in bile duct ligation rat model assessed as reduction in […] level at 100 mg/kg, po administered for 14 days; format: functional; settings: time 14 day
# Rattus norvegicus [29] = test: Anti-hepatic fibrosis activity in bile duct ligation rat model assessed as reduction in ITGAV mRNA expression at 100 mg/kg, po administered for 14 days by qRT-PCR analysis; format: functional, organism-based; settings: time 14.0 day
# Rattus norvegicus [30] = test: Anti-hepatic fibrosis activity in bile duct ligation rat model assessed as reduction in bile TBA level at 100 mg/kg, po administered for 14 days; format: functional; settings: time 14 day
# Rattus norvegicus [31] = test: Anti-hepatic fibrosis activity in bile duct ligation rat model assessed as reduction in ACTA2 mRNA expression at 100 mg/kg, po administered for 14 days by qRT-PCR analysis; format: functional, organism-based; settings: time 14.0 day
# LX-2 [32] = test: Downregulation of EWSR1 mRNA level in human LX2 cells; format: functional, cell-based
# HSC-T6 [33] = test: Anti-fibrosis effect in HSC-T6 cells assessed as reduction in TGFbeta1-induced COL1A1 protein expression measured for 24 hrs; format: functional, cell-based; settings: Rattus norvegicus, dose 2.5-20 µM
# Rattus norvegicus [34] = test: Anti-hepatic fibrosis activity in bile duct ligation rat model assessed as reduction in MMP2 mRNA expression at 100 mg/kg, po administered for 14 days by qRT-PCR analysis; format: functional, organism-based; settings: time 14.0 day
# Rattus norvegicus [35] = test: Anti-hepatic fibrosis activity in bile duct ligation rat model assessed as reduction in TGFB1 mRNA expression at 100 mg/kg, po administered for 14 days by qRT-PCR analysis; format: functional, organism-based; settings: time 14.0 day
# Rattus norvegicus [36] = test: Anti-hepatic fibrosis activity in bile duct ligation rat model assessed as reduction in serum TBiL level in serum at 100 mg/kg, po administered for 14 days; format: functional; settings: time 14 day
# Collagen alpha-1(I) chain, sequence (P02452 whole entry): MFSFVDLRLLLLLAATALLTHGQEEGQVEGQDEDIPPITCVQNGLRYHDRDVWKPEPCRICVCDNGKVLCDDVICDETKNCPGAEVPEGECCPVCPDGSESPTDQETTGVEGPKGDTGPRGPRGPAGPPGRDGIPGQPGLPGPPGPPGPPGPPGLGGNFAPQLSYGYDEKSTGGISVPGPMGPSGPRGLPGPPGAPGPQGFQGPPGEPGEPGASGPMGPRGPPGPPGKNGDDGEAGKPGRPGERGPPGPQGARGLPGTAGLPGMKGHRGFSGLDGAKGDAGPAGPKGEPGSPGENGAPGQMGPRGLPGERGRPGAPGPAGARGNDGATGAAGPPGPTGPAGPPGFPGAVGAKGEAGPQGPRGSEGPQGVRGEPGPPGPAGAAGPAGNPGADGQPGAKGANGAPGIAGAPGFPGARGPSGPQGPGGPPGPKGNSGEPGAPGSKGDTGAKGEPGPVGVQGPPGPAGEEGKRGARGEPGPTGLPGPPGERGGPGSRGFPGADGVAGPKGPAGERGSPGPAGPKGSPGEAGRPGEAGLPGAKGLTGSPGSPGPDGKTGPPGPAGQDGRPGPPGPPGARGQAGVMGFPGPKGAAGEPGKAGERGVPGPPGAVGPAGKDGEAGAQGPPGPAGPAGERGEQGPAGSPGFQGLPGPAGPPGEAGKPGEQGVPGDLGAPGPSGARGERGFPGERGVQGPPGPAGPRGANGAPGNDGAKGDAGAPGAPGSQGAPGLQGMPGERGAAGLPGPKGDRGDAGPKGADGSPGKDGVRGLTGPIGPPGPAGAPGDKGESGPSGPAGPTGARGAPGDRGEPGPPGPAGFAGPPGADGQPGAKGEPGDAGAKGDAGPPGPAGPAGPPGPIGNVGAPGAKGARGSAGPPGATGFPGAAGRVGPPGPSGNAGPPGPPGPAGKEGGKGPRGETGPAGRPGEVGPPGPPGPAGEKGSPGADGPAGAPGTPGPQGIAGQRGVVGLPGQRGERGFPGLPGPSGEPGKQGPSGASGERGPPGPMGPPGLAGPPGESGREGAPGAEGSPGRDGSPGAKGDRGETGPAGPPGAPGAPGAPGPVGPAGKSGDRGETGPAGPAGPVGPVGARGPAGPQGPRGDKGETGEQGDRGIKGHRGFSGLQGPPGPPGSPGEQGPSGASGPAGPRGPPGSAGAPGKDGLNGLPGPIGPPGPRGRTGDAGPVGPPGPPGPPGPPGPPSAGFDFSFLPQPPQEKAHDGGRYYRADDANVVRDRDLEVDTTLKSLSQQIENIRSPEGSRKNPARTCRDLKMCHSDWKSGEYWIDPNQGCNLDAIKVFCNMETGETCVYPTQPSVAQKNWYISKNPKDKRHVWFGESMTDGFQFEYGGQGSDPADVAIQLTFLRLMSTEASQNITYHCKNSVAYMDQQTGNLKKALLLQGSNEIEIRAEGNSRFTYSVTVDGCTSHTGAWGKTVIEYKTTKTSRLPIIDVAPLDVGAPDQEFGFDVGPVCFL
smiles,measurement,setting,value
CCCC[C@@H]1[C@H]2CCCN3CCC[C@@H](CN1C(=O)Nc1c(CC)cccc1CC)[C@@H]23,inhibition,[1],98.8%
same,Activity,HSC-T6 [2],Dose-Dependent Effect
same,Activity,Rattus norvegicus [3],Active
same,Activity,Rattus norvegicus [4],Active
same,Activity,LX-2 [5],Active
same,Activity,Rattus norvegicus [6],60.67 U/L
same,Activity,Rattus norvegicus [7],Active
same,Activity,Rattus norvegicus [8],Active
same,Activity,Rattus norvegicus [9],447.83 U/L
same,Activity,LX-2 [10],Active
same,Activity,HSC-T6 [11],Dose-Dependent Effect
same,Activity,LX-2 [12],Active
same,Activity,Mus musculus [13],Active
same,Activity,Rattus norvegicus [14],Active
same,Activity,LX-2 [15],Active
same,Activity,LX-2 [16],Active
same,Activity,Mus musculus [17],Active
same,Activity,Mus musculus [18],884 U/L
same,Activity,Mus musculus [19],Active
same,Activity,LX-2 [20],Active
same,Activity,Mus musculus [21],278.8 U/L
same,Activity,LX-2 [22],Active
same,Activity,Mus musculus [23],Active
same,Activity,Rattus norvegicus [24],4.91 µmol/L
same,Activity,Mus musculus [25],Active
same,Activity,Mus musculus [26],286.6 U/L
same,Activity,Rattus norvegicus [27],Active
same,Activity,Rattus norvegicus [28],36.5 U/L
same,Activity,Rattus norvegicus [29],Active
same,Activity,Rattus norvegicus [30],433.11 µmol/L
same,Activity,Rattus norvegicus [31],Active
same,Activity,LX-2 [32],inactive
same,Activity,HSC-T6 [33],Dose-Dependent Effect
same,Activity,Rattus norvegicus [34],Active
same,Activity,Rattus norvegicus [35],Active
same,Activity,Rattus norvegicus [36],92.48 µmol/L
